According to patent US20220348876A1, “METABOLISM GUIDES DEFINITIVE LINEAGE SPECIFICATION DURING ENDOTHELIAL TO HEMATOPOIETIC TRANSITION” (Amniotics AB, priority 2019, published 2022):

Assays:
Format in all cases: cell-based, human
HE cells [1] = test: Colony forming unit assay of subcultured HE cells; conditions: for ratio of CFU-E colonies to the sum of CFU-G, CFU-GM and CFU-M colonies: 6 days, compared to the control
Experimental: (§1) Subcultured HE cells were treated with StemPro Accutase Cell Dissociation Reagent for 2 minutes at 37° C. and dissociated cells were resuspended in 3 ml Methocult H4230 (STEMCELL Technologies, France) (prepared according to manufacturer's instructions, with 20 mL Iscove's Modified Dulbecco's Medium containing 2.5 μg hSCF, 5 μg GM-CSF, 2.5 μg IL-3 and 500 U EPO). Each mixture was divided onto 2 wells of a non-tissue culture treated 6-well plate. Following a 12-day incubation in a humidified incubator at 37° C., 5% CO2, 20% O2, colonies were morphologically distinguished and scored. For globin analysis, colonies in Methocult wells were harvested with PBS, washed thoroughly and frozen in RLT buffer with β-mercaptoethanol. Following RNA extraction and RT (Qiagen), gene expression was assessed with taqman probes by q-PCR. The taqman probes used in this study are HBA1/2 (Hs00361191_g1), HBE1 (Hs00362216_m1), HBG2/1 (Hs00361131_g1) and KLF1 (Hs00610592_m1).

HE cells [2] = test: single-cell RNAseq of treated HE cells at day 2
Experimental: Sorted HE, EHT and HSC-like cells as well magnetically selected (Miltenyi Biotec) cord blood CD34^+ cells were plated onto Matrigel (16 μg/cm^2, Corning)-coated 96-well flat bottom plates in HE medium (Ditadi, A. & Sturgeon, C. M. Methods 101, 65-72 (2016)) with 1% penicillin-streptomycin and kept in a humidified incubator at 37° C., 5% CO2, 4% O2 overnight. The following day (day 0), wells were washed twice with PBS and fresh HE medium was added, together with UK5099 (10 μM) or DCA (3 mM), where indicated. On day 1 and 2 (as indicated), cells were washed twice with PBS 0.04% UltraPure BSA and collected after a 2-minute incubation at 37° C. with StemPro Accutase Cell Dissociation Reagent. Cells were spun down, resuspended in PBS 0.04% UltraPure BSA, counted (yield between 8,000-18,000 cells) and library preparation was conducted according to the Chromium Single Cell 3′ Reagent kit v3 instructions (10× Genomics). Sequencing was performed on a NOVASeq 6000 from Illumina with the run parameters (28-8-0-91) recommended by 10× Genomics with a final loading concentration of 300 pM of the pooled libraries. Human Umbilical Cord Blood samples were collected from Skane University Hospital (Lund and Malmo) and Helsingborg Hospital with informed consents according to guidelines approved by the regional ethical committee.
The data was processed and analyzed using Seurat v3.1.0, where cells were allowed to have up to 20% mitochondrial reads prior to log-normalization and finding the top 500 variable genes using the “vst” method. Cell cycle scores were calculated and the data was scaled regressing on mitochondrial content and the difference of the S and G2M score. Principal components were calculated prior to calculating a UMAP. Pseudotime trajectories describing two developmental routes were identified in our EHT dataset using Slingshot (Street, K. et al. BMC Genomics 19, 477 (2018)) along which the cells were ordered. The cells were then binned along each trajectory where the cell-type composition of each bin was calculated as percentages. Cord blood CD34^+ cells were mapped to our data and labeled using scCoGAPS (Stein-O'Brien, G. L. et al. Cell Syst 8, 395-411.e8 (2019)). CS13 data from Zeng et al. (Zeng, Y. et al. Cell Res 1-14 (2019)) was read and processed to make a UMAP from which the cells they name as “AEC” and “Hem” were identified. These 99 cells were mapped to our data and labeled using SCMAP (Kiselev, V. Y. et al. Nat Methods 15, 359-362 (2018)). Our EHT data was mapped to data from Zeng et al. (Zeng, Y. et al. Cell Res 1-14 (2019)) and vice versa using scCoGAPS where 10 patterns were identified in each data set and then projected to each other using projectR. Each cell was assigned to the group that achieved the highest weight. An overview showing the relationship between cell-types and patterns was done by forming a contingency table on which correspondence analysis was performed using the ca package for R. Differentially expressed genes were found using the FindAllMarkers function. Cell numbers for day 1 samples are as follows: HE=1451, EHT=1523, HSC-like=732. […] All assessed endothelial and hematopoietic genes were previously used in several publications to validate the EHT process (Zhou, F. et al. Nature 533, 487-492 (2016); Swiers, G. et al. Nat Commun 4, 2924 (2013); Ng, E. S. et al. Nature Biotechnology 34, 1168-1179 (2016) and Guibentif, C. et al. Cell Reports 19, 10-19 (2017)). […]

HE cells [3] = test: HE cell subculture with compounds, flow cytometry
HE cells [4] = test: GPA+ clones from single HE cells on OP9-DL1 stroma; conditions: of 552 single cells per condition, day 14; control 9
Description: In some examples to further assess the effect of pyruvate manipulation on a single cell level, single HE cells were sorted onto OP9-DL1 stroma and GPA^+ clones were scored at day 14. From a total of 552 single cells per condition, 12 GPA^+ clones were detected in the UK5099-treated condition and 7 GPA^+ clones in the DCA-treated condition as compared to 9 GPA^+ clones in the control (FIG. 14, d).

HE cells [5] = test: globin transcript q-PCR in CFU colonies; conditions: normalized to KLF1, relative to non-treated
Experimental: as §1

[6] = 3 or 6 days of UK5099, vs untreated

SMILES: O=C(O)C(Cl)Cl [DCA, dichloroacetate]
- ratio of CFU-E colonies to the sum of CFU-G, CFU-GM and CFU-M colonies (HE cells [1]): more than 3 -fold lower
- less cells in cluster 7 compared to the control (HE cells [2]; day 2, DCA 3 mM): 35%
- decrease in CD43+GPA+ population (HE cells [3]; day 6 of HE subculture, DCA 3 mM): 50%
- increase in the percentage of CD43+CD45+ cells (HE cells [3]; deriving from HE, day 6, DCA 3 mM): 80%
- GPA+ clones (HE cells [4]): 7

SMILES: N#C/C(=C\c1cn(-c2ccccc2)c2ccccc12)C(=O)O [UK5099]
- erythroid colony (CFU-E) formation (HE cells [1]; [6]): significantly increased
- granulocyte and macrophage colonies (CFU-G, GM and M) (HE cells [1]; [6]): decreased
- ratio of CFU-E colonies to the sum of CFU-G, CFU-GM and CFU-M colonies (HE cells [1]): 20 -fold higher
- expression of LSD1, GFI1 and GFI1B (HE cells [2]; UK5099-treated compared to DCA-treated cells): higher levels
- average expression levels of erythroid lineage genes (RYK, KLF3, TAL1, GATA2, ZFPM1, KLF1, NFE2, ANK1, HBQ1) (HE cells [2]; clusters 6 and 7, vs untreated HE cells): higher
- more cells in cluster 7 compared to the control (HE cells [2]; day 2, UK5099 10 μM): 38%
- percentage of cells in cluster 6 (HE cells [2]; day 2, UK5099 10 μM or DCA 3 mM): constant between conditions
- proliferation of CD45+ cells deriving from HE (HE cells [3]; CTV, UK5099 10 μM or DCA 3 mM): did not have an effect
- frequency of HSC-like cells deriving from HE (HE cells [3]; UK5099 10 μM or DCA 3 mM): did not have an effect
- proliferation of the GPA+ population deriving from HE (HE cells [3]; day 3, CTV, UK5099 10 μM or DCA 3 mM): No differences
- HE-derived CD43+GPA+ cell output (HE cells [3]; day 3 of subculture vs control, BPTES 25 μM, UK5099 10 μM, 1-AA 4 mM, DCA 3 mM): striking increase
- levels of total CD43+ cells (HE cells [3]; day 6, treated vs untreated): unchanged
- proliferation by EdU incorporation (HE cells [3]; days 1 and 2 of subculture, 24 h pulse): no differences
- decrease in the CD43+CD45+ population (HE cells [3]; deriving from HE cells, day 6, UK5099 10 μM): 2 -fold
- HBA1-2 (adult globin) expression (HE cells [5]): did not have an effect
- HBE1 (embryonic) globin transcripts (HE cells [5]): significant increase
- HBG1-2 (fetal) globin transcripts (HE cells [5]): significant increase
- GPA+ clones (HE cells [4]): 12
